Experimental findings from BindingDB's records for doi:10.1016/S0960-894X(01)80724-1 (1993) are described below.

The target in the assay is Squalene synthase (Candida albicans). Kind of assay: Inhibition of Candida albicans squalene synthase(SQS).

Consider `C=C(CC[C@]12O[C@H](C(=O)O)[C@@](O)(C(=O)O)[C@](C(=O)O)(O1)[C@H](O)[C@H]2OC(=O)OC)[C@@H](OC(C)=O)[C@H](C)Cc1ccccc1` [(1S,3S,4S,5R,6R,7R)-1-((4S,5R)-4-Acetoxy-5-methyl-3-methylene-6-phenyl-hexyl)-4,6-dihydroxy-7-methoxycarbonyloxy-2,8-dioxa-bicyclo[3.2.1]octane-3,4,5-tricarboxylic acid], for which the IC50 (in general, the midpoint of a concentration-inhibition curve) is over 200 nM.

The molecule `C=C(CC[C@]12O[C@H](C(=O)O)[C@@](O)(C(=O)O)[C@](C(=O)O)(O1)[C@H](O)[C@H]2OC(=O)CCCCCCC)[C@@H](OC(C)=O)[C@H](C)Cc1ccccc1` [(1S,3S,4S,5R,6R,7R)-1-((4S,5R)-4-Acetoxy-5-methyl-3-methylene-6-phenyl-hexyl)-4,6-dihydroxy-7-octanoyloxy-2,8-dioxa-bicyclo[3.2.1]octane-3,4,5-tricarboxylic acid] gave an IC50 of over 200 nM.

As for `C=C(CC[C@]12O[C@H](C(=O)O)[C@@](O)(C(=O)O)[C@](C(=O)O)(O1)[C@H](OC(=O)CCCCCCc1ccccc1)[C@H]2O)[C@@H](OC(C)=O)[C@H](C)Cc1ccccc1` [(1S,3S,4S,5R,6R,7R)-1-((4S,5R)-4-Acetoxy-5-methyl-3-methylene-6-phenyl-hexyl)-4,7-dihydroxy-6-(7-phenyl-heptanoyloxy)-2,8-dioxa-bicyclo[3.2.1]octane-3,4,5-tricarboxylic acid], the half-inhibitory concentration (IC50) turned out to be 7 nM.

`C=C(CC[C@]12O[C@H](C(=O)O)[C@@](O)(C(=O)O)[C@](C(=O)O)(O1)[C@H](OC(=O)/C=C/c1ccccc1)[C@H]2O)[C@@H](OC(C)=O)[C@H](C)Cc1ccccc1` [(1S,3S,4S,5R,6R,7R)-1-((4S,5R)-4-Acetoxy-5-methyl-3-methylene-6-phenyl-hexyl)-4,7-dihydroxy-6-[(E)-(3-phenyl-acryloyl)oxy]-2,8-dioxa-bicyclo[3.2.1]octane-3,4,5-tricarboxylic acid] yielded an IC50 of 10 nM.

Consider `C=C(CC[C@]12O[C@H](C(=O)O)[C@@](O)(C(=O)O)[C@](C(=O)O)(O1)[C@H](OC(=O)OCCCCCCCCC)[C@H]2O)[C@@H](OC(C)=O)[C@H](C)Cc1ccccc1` [(1S,3S,4S,5R,6R,7R)-1-((4S,5R)-4-Acetoxy-5-methyl-3-methylene-6-phenyl-hexyl)-4,7-dihydroxy-6-nonyloxycarbonyloxy-2,8-dioxa-bicyclo[3.2.1]octane-3,4,5-tricarboxylic acid], for which the half-inhibitory concentration (IC50) was found to be 2 nM.

The molecule `C=C(CC[C@]12O[C@H](C(=O)O)[C@@](O)(C(=O)O)[C@](C(=O)O)(O1)[C@H](OC(=O)CCCCCCC)[C@H]2OC(=O)CCCCCCC)[C@@H](OC(C)=O)[C@H](C)Cc1ccccc1` [(1S,3S,4S,5R,6R,7R)-1-((4S,5R)-4-Acetoxy-5-methyl-3-methylene-6-phenyl-hexyl)-4-hydroxy-6,7-bis-octanoyloxy-2,8-dioxa-bicyclo[3.2.1]octane-3,4,5-tricarboxylic acid] came in with an IC50 of over 200 nM.

`C=C(CC[C@]12O[C@H](C(=O)O)[C@@](O)(C(=O)O)[C@](C(=O)O)(O1)[C@H](OC(=O)OCCCC)[C@H]2O)[C@@H](OC(C)=O)[C@H](C)Cc1ccccc1` [(1S,3S,4S,5R,6R,7R)-1-((4S,5R)-4-Acetoxy-5-methyl-3-methylene-6-phenyl-hexyl)-6-butoxycarbonyloxy-4,7-dihydroxy-2,8-dioxa-bicyclo[3.2.1]octane-3,4,5-tricarboxylic acid] showed an IC50 of 8 nM.

`C=C(CC[C@]12O[C@H](C(=O)O)[C@@](O)(C(=O)O)[C@](C(=O)O)(O1)[C@H](O)[C@H]2OC(C)=O)[C@@H](OC(C)=O)[C@H](C)Cc1ccccc1` [(1S,3S,4S,5R,6R,7R)-7-Acetoxy-1-((4S,5R)-4-acetoxy-5-methyl-3-methylene-6-phenyl-hexyl)-4,6-dihydroxy-2,8-dioxa-bicyclo[3.2.1]octane-3,4,5-tricarboxylic acid]: the 50% inhibitory concentration (IC50) was over 200 nM.
